The structures appear in SMILES notation. Read-outs that look alike come from different tables or passages of the source.

Data set [1] can be described thus: Determination of the blood-to-plasma ratio (spiked whole blood and plasma, GC–MS of plasma). The class given is in vitro ADME. The note with it: pooled human blood, haematocrit 41%, 1 h at 37 °C; for blood plasma ratio at 1 h, 5 µM: both sexes, pooled whole blood and plasma, read-out: Kb/p experimental (blood-to-plasma ratio); for Kb/p experimental (blood-to-plasma ratio): 5 µM. As to the method:
Human blood (pooled, from three male donors and three female donors) was obtained from Seralab (West Sussex, UK). Blood was received chilled with sodium citrate as an anticoagulant and kept at 4 °C until use. The blood was used prior to its expiration date. Blood haematocrit was 41%, as provided by the supplier.
In this method, only analysis of the plasma is required. Briefly, the compound is spiked into equal volumes of whole blood and plasma. Following equilibration, the whole blood is centrifuged to extract the plasma. The extracted plasma and the original plasma are analysed to obtain compound concentrations. The blood-to-plasma ratio can then be calculated from Eq. 1 (shown below).
In this work, aliquots of whole blood (5 mL) were centrifuged at 2500 rpm for 20 min to provide plasma. This was performed on the day of the experiments. The plasma was removed and stored at 4 °C until use (typically within 2 h).
The compounds were dissolved in DMSO or acetonitrile to produce 5 mM stock solutions. Stock solutions were diluted with PBS (pH 7.4) to produce working solutions (50 µM) on the day of experimentation. Stock solutions were stored for no longer than 1 week. Appropriate volumes of working solutions were added to blood or plasma to yield a final compound concentration of 5 µM (final solvent concentrations were 0.1%). The treated blood or plasma samples were incubated for 1 h at 37 °C. Following incubation, the blood sample was removed and centrifuged at 2500 rpm for 20 min and the plasma was extracted. The 250 µL of extracted plasma (from spiked whole blood) and 250 µL of spiked plasma had ice-cold acetonitrile added to precipitate proteins (4:1 ratio of acetonitrile-to-plasma). Both plasma samples were then centrifuged at 10,000 rpm for 20 min. The supernatants were collected and evaporated under a stream of nitrogen using a Biotage Turbovap LV Evaporator. The evaporated samples were reconstituted in 150 µL acetonitrile and analysed using gas chromatography–mass spectrometry (GC–MS).
The […] was calculated using Eq. 11 Ke/p=1/H×CPRef/CP-1+1, where Ke/p is the red blood cell partition coefficient, H is the haematocrit, CPRef is the concentration (µM) in the reference plasma, and CP is the concentration (µM) in the plasma separated from the whole blood.
Ke/p describes the ratio of the concentration of drug in the red blood cells (not including plasma) to the concentration of drug in plasma. Ke/p can be converted to the blood-to-plasma ratio (Kb/p) with Eq. 22 Kb/p=(Ke/p×H)+1-H, where Kb/p is the blood-to-plasma ratio, Ke/p is the […], and H is the haematocrit. Kb/p therefore describes the ratio of the concentration of drug in whole blood (containing both red blood cells and plasma) to the concentration of the drug in plasma.

For data set [2] the following is noted: ref 13; cited from earlier work.
The conditions of data set [3]: cited from earlier work; for Kb/p literature (blood-to-plasma ratio): literature range.
Another data set concerns the target GABAA receptor. Set-up: method as in PMID 29685303. The note with it: QSAR, previous work; cited from earlier work.
On the set-up of data set [4]: method as in PMID 31933443. The following applies: user reports; cited from earlier work.

On to `O=C1CN=C(c2ccccc2Cl)c2cc(Br)ccc2N1` [Phenazepam, phenazepam], for which the blood plasma ratio at 1 h, 5 µM in data set [1] is 0.57 ± 0.13. Moreover, in data set [2], the plasma protein binding is reported as 98.3%.

As for `CN(C)CCCN1c2ccccc2Sc2ccc(Cl)cc21` [Chlorpromazine, chlorpromazine], the blood plasma ratio at 1 h, 5 µM in data set [1] worked out at 1.43 ± 0.32. Also, the “Kb/p literature (blood-to-plasma ratio)” value in data set [3] is reported as 1.17–1.56.

Consider `C=C[C@H]1C[N@@]2CC[C@H]1C[C@H]2[C@H](O)c1ccnc2ccc(OC)cc12` [Quinine, quinine], for which the blood plasma ratio at 1 h, 5 µM in data set [1] was 1.66 ± 0.52. The “Kb/p literature (blood-to-plasma ratio)” value in data set [3] is reported as 1.46–2.00. Consider `CCc1cc2c(s1)-n1c(C)nnc1CN=C2c1ccccc1` [Deschloroetizolam, deschloroetizolam], for which the “Kb/p experimental (blood-to-plasma ratio)” value in data set [1] was determined as 0.68 ± 0.06. For the same molecule, the plasma protein binding in data set [2] is recorded as 87.2%. In the case of `C[C@@H]1N=C(c2ccccc2Cl)c2cc([N+](=O)[O-])ccc2NC1=O` [Meclonazepam, meclonazepam], the blood plasma ratio at 1 h, 5 µM in data set [1] was 0.83 ± 0.08. In the case of `Cc1nnc2n1-c1ccc([N+](=O)[O-])cc1C(c1ccccc1F)=NC2` [flunitrazolam], the “predicted log 1/c value” at GABAA receptor was 8.88. For the molecule `Cc1nnc2n1-c1ccc(Br)cc1C(c1ccccn1)=NC2` [Pyrazolam, pyrazolam], the “Kb/p experimental (blood-to-plasma ratio)” value in data set [1] amounted to 1.18 ± 0.03. Besides, the plasma protein binding in data set [2] was 78.7%. With `CCc1cc2c(s1)-n1c(C)nnc1CN=C2c1ccccc1Cl` [Etizolam, etizolam], the blood plasma ratio at 1 h, 5 µM in data set [1] was 0.7 ± 0.03. Further, the plasma protein binding in data set [2] is 92.8%. Turning to `O=C1CN=C(c2ccccc2)c2cc([N+](=O)[O-])ccc2N1` [Nitrazepam, nitrazepam], the blood plasma ratio at 1 h, 5 µM in data set [1] was determined as 0.63 ± 0.02. For the same molecule, the blood-to-plasma ratio is listed as 0.57 ± 0.27 in data set [3] (calculated from literature whole blood and plasma concentrations (125-I radioimmunoassay)); 1.0 in data set [3] (commonly reported value, origin unclear). Moreover, the “Kb/p literature (blood-to-plasma ratio)” value in data set [3] was 0.57–1.00. With `CN1C(=O)CN=C(c2ccccc2Cl)c2cc(Cl)ccc21` [Diclazepam, diclazepam], in data set [1], the “Kb/p experimental (blood-to-plasma ratio)” value worked out at 0.82 ± 0.05. The plasma protein binding in data set [2] was 93.8%.

With `O=C1CN=C(c2ccccc2Cl)c2cc([N+](=O)[O-])ccc2N1` [Clonazepam, clonazepam], the blood-to-plasma ratio in data set [3] (ref 37) was 0.65.

Regarding `Cc1nnc2n1-c1sc(Cl)cc1C(c1ccccc1F)=NC2` [Fluclotizolam], in data set [4], the “dose reported as having a 'heavy effect'” value was “more than 0.75 mg”.

In the case of `O=C1Nc2ccc(Cl)cc2C(c2ccccc2Cl)=NC1O` (stereo not drawn) [lorazepam], the blood-to-plasma ratio in data set [3] (ref 16) is 0.60; in data set [3] (ref 38) it was 1.14.

(Values after PMC9715504, “The blood-to-plasma ratio and predicted GABAA-binding affinity of designer benzodiazepines” (Forensic Toxicology, 2022).)
